Reference: patent publication US6660837B1, “Modified protein derived from protein kinase N” (Kirin Beer Kabushiki Kaisha, priority 1995, dated 2003)
Values belong to the compound of their own block, whether it stands above or below them. Ends that are not written are not given here.

Columns and labels:
PKN autophosphorylation = test: Kinase activity (autophosphorylation) of immunoprecipitated PKN-PK^−; assay type: biochemical, human; conditions: immunoprecipitate from PK^−/neo#5 cells
Procedure: To examine whether PKN-PK^− has kinase activity, the kinase activity of PKN-PK^−, which has been immunoprecipitated by cells, was assayed. Specifically, the assay was carried out according to the following procedure.
The experiment on immunoprecipitation was carried out at 0 to 4° C. The wild type NIH 3T3 cells and PK^−/neo#5 cells were lysed in 0.5 ml of buffer B (20 mM Tris/HCl at pH 7.5, 1% Nonidet P-40, 137 mM NaCl, 10% glycerol, 1 mM PMSF, 20 μg/ml aprotinin, 10 μg/ml leupeptin, 2.5 mM sodium fluoride, 0.25 mM sodium vanadate) for 1 hr. Insoluble materials were removed by centrifugation at 15,000×g for 10 min, and the supernatants were incubated with 1 μl of 10-fold diluted antiserum αN2 (Example 19) for 2 hr. After addition of 40 μl of 50% protein A Sepharose, the mixtures were further incubated for 1 hr. […] Each immunoprecipitate was incubated for 5 min at 30° C. with a 25-μl mixture (20 mM Tris/HCl at pH 7.5, 4 mM MgCl2, 40 μM ATP, 185 kBq of [γ-^32P] ATP without exogenous substrate. After addition of 5 μl of 6×Laemmli sample buffer (Laemmli, U. K. Nature 227, 680-685 (1970)) and boiling, a 20-μl aliquot of the mixture was subjected to 7% SDS-PAGE. The phosphorylation was visualized and quantitated by an imaging analyzer (Fuji BAS1000).

[1] = test system: PK^−/neo#5 cells (NIH 3T3); test: Heat shock induced nuclear translocation of PKN in PK^−/neo#5 cells; assay type: cell-based
Procedure: (§1) Cells grown on coverslips were washed twice with phosphate-buffered saline (PBS), fixed for 1 hr at 4° C. in 4% paraformaldehyde, rinsed with PBS, and then blocked for 1 hr in PBS-T (PBS containing 0.05% Triton X-100) containing 5% normal goat serum. After washing with PBS, cells were incubated overnight at 4° C. with each antiserum which has been diluted with PBS to an antiserum concentration of about 10 μg/ml. Coverslips were then rinsed with PBS-T, and incubated with fluorescein isothiocyanate isomer I (FITC)-conjugated goat anti-rabbit IgG (Medical and biological laboratories, Co. Ltd.) for 60 min. Coverslips were rinsed with PBS-T followed by PBS, mounted with glycerol containing 0.1% 1, 4-diazabicyclo (2, 2, 2) octane (DABCO), and viewed on a Zeiss laser scanning microscope.
At the outset, NIH 3T3 cells which stably overexpresses PKN-PK^− were constructed by the following procedure. A vector phPKNH4-PK^− was constructed by conversion of the lysine at the potential ATP-binding site to an arginine by in vitro site-directed mutagenesis (Mukai, H. & Ono, Y., Biochem. Biophys. Res. Commun. 199, 897-904 (1994)). […]

PKN = biological target: T1, PKN (Rattus norvegicus, UniProt Q63433); test: Inhibition of protein kinase activity of PKN with synthetic peptides (δPKC peptide substrate); assay type: biochemical; conditions: δPKC peptide at Km concentration (10 μM)
T1 construct: The purified PKN (1 ng) from rat testis cytosol; from tissue; host or cells: rat testis (cytosol / soluble fraction)
T1 sequence (Q63433 whole entry): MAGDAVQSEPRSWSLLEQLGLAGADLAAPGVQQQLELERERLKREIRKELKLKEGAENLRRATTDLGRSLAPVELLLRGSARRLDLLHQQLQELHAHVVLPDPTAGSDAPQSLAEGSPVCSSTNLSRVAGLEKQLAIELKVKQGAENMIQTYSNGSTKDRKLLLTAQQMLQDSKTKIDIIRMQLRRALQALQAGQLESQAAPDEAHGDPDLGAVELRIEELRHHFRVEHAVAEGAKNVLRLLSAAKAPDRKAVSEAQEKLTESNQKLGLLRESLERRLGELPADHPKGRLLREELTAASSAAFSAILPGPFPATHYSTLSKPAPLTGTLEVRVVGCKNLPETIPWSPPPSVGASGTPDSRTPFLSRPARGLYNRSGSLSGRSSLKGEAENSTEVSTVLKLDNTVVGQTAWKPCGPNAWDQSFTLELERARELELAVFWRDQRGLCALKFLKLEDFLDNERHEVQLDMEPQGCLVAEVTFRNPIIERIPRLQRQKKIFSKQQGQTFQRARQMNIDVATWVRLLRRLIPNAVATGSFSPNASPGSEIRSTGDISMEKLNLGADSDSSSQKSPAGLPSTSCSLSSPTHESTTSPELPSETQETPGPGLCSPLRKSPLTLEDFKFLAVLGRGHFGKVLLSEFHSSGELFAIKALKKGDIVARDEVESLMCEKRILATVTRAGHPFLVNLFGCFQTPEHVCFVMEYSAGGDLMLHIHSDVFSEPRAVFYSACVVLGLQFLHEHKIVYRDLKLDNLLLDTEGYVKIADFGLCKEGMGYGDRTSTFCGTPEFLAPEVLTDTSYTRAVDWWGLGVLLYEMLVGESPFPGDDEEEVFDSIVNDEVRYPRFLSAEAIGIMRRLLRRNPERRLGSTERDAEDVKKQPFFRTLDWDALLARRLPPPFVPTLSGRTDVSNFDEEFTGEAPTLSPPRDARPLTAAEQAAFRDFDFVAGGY
Procedure: Kinase assay was carried out by the following method. The purified PKN (1 ng) from rat testis cytosol (Kitagawa, M. et al., Biochem. J. 310, 657-664. (1995)) was incubated for 5 min at 30° C. in a reaction mixture (final volume 25 μl) containing 50 mM Tris/HCl (pH 7.5), 8 mM Mgcl2, 20 μM ATP, 18.5 kBq of [γ-^32p] ATP, 40 μM arachidonic acid, phosphate acceptors and inhibitors as indicated in each experiment. Reactions were started by the addition of the enzyme source and terminated by spotting them onto Whatman P81 papers immersed in 75 mM phosphate. Incorporation of ^32P into phosphate acceptors was assessed by liquid scintillation counting. The protein kinase assay was carried out in the same manner as in Example 13, except that PKN was measured by using 6PKC peptide as a substrate and PKN (39-53) peptide (FIG. 22; black circle) or PKN (54-73) (FIG. 22: white circle) as an inhibitor. The concentration of δPKC peptide was Km concentration (10 μM). The protein kinase reaction was carried out in the presence of PKN (39-53) peptide or PKN (54-73) peptide with various concentrations.

[2] = biological target: T2, purified PKN from rat testis (Rattus norvegicus, UniProt Q63433); test: Phosphorylation of native NF by PKN; assay type: biochemical; conditions: 40 μM arachidonic acid
T2 construct: The purified PKN (1 ng) from rat testis cytosol; from tissue; host or cells: rat testis (cytosol / soluble fraction)
T2 sequence (Q63433 whole entry): as above
Procedure: Native NFs were prepared from bovine spinal cords according to a method described in Hisanaga, S. & Hirokawa, N., J. Mol. Biol. 202, 297-305 (1988). Kinase assay was carried out according to the following method.
Soluble cytosolic extract of spinal cord or purified NF proteins were boiled for 5 min to destroy endogenous protein kinase activity prior to their use as phosphate acceptors. The phosphorylation of NF preparations was carried out at 30° C. in an assay mixture containing 20 mM Tris/HCl at pH 7.5, 8 mM MgCl2, 100 μM ATP, 185 kBq of [γ-^32P]ATP, each subunit of NF, 20 ng/ml of purified PKN from rat testis, and with/without 40 μM arachidonic acid as indicated in each experiment. Reactions were terminated after various times by the addition of an equal volume of Laemli's sample buffer, and separation was performed on 7% SDS-PAGE. The gels were dried under vacuum and exposure to BAS1000 bio-imaging analyzer. Dephosphorylation of NF proteins was conducted with calf intestine alkaline phosphatase according to a method described in Carden, M. J. et al., J. Biol. Chem. 260, 9805-9817 (1985) and terminated after boiling for 5 min.

[3] = biological target: T3, PKN purified from rat testis (Rattus norvegicus, UniProt Q63433); test: Phosphorylation of α-actinin and actin-cytoskeletal proteins by PKN; assay type: biochemical; conditions: presence of 40 μM arachidonic acid
T3 construct: The purified PKN (1 ng) from rat testis cytosol; from tissue; host or cells: rat testis (cytosol / soluble fraction)
T3 sequence (Q63433 whole entry): as above
Procedure: α-Actinin used in the experiment was purified from bovine aorta by the method of Feramisco et al. (Feramisco, J. R. & Burridge, K. J. Biol. Chem, 255, 1194-1199 (1980)). The phosphorylation by PKN was carried out at 30° C. in an assay mixture containing 20 mM Tris/HCl at pH 7.5, 4 mM MgCl2, 100 μM ATP, 185 kBq of [γ-^32p] ATP, substrates for phosphorylation (phosphate acceptors), 20 ng/ml of purified PKN from rat testis (Abe, M., et al., J. Biochem. Tokyo 107, 507-509 (1990)) in the presence or absence of 40 μM arachidonic acid as indicated in each experiment. Partial purified protein was boiled for 3 min to destroy endogenous kinase activity before use as the substrate for phosphorylation. After incubation for 5 min, the reaction was terminated by the addition of an equal volume of Laemmli's sample buffer (Laemmli, U. K. Nature […], 680-685 (1970)), and separated on SDS-PAGE. The gels were dried under vacuum and the phosphorylation was visualized and quantitated by an imaging analyzer (FUJI BAS1000). When the δPKC peptide (Mukai, H., et al. Biochem, Biophys. Res. Commun. 204, 348-356 (1994)) was used as the substrate for phosphorylation, reactions were terminated by spotting a mixture onto a Whatman P81 paper and submerging it in 75 mM phosphate, and followed by three times of 10 min washes. Incorporation of ^32p into the peptide was assessed by scintillation counting. […]

[4] = biological target: T4, catalytic subunit of bovine heart PKA (Bos taurus, UniProt P00517); test: Protein kinase assay with PKA (Kemptide substrate), specificity of inhibitor peptide; assay type: biochemical; conditions: Kemptide at Km concentration (16 μM), no arachidonic acid; read-out: IC50 against PKA
T4 construct: The catalytic subunit of bovine heart PKA used in the experiment was purified; from tissue; host or cells: bovine heart
Procedure: In order to judge the specificity of the activity of the inhibitor peptide, a protein kinase assay was carried out using PKA as an enzyme specimen. The catalytic subunit of bovine heart PKA used in the experiment was purified according to a method described in Bechtel, P. J. et al., J. Biol. Chem. 252, 2691-2697 (1977). The protein kinase activity of PKA was measured by using Kemptide (Kemp, B. E. et al., J. Biol. Chem. 252, 4888-4894 (1977) as a substrate under the same conditions as those used in Example 13, except that arachidonic acid was not used. The concentration of Kemptide was the Km concentration (16 μM), and measurement was made using PKN (39-53) peptide as an inhibitor (FIG. 22; white square). The kinase activity was determined in the same manner as in Example 13.

purified PKN = biological target: T5, purified PKN (Rattus norvegicus, UniProt Q63433); test: Kinetic assays of PKN inhibition by PKN (39-53) peptide; assay type: biochemical
T5 construct: The purified PKN (1 ng) from rat testis cytosol; from tissue; host or cells: rat testis (cytosol / soluble fraction)
T5 sequence (Q63433 whole entry): as above
Procedure: In order to confirm the function of PKN (39-53) as a pseudosubstrate for PKN, kinetic assays were performed with purified PKN, a fixed ATP concentration of 100 μM, and various concentrations of δPKC peptide (10-80 μM). The protein kinase reaction of PKN was performed in the same manner as in Examples 13 and 14. The results, performed in the presence of 40-80 μM PKN (39-53) peptide, are shown in double-reciprocal plots (FIG. 23 (A)). The inhibition was competitive-noncompetitive and gave a linear secondary plot of Km/Vmax (a concentration required to give a half-maximal velocity/maximal velocity) versus inhibitor peptide concentrations (FIG. 23 (B)).

[5] = biological target: T6, GST-RhoGAP-stimulated GTPase activity of GST-RhoA (Homo sapiens, UniProt P61586); test: GAP-stimulated GTPase activity of RhoA; assay type: biochemical; conditions: 50 nM GST-RhoGAP, 2 min 25° C., concentration-dependent
T6 construct: made in house
T6 sequence (P61586 whole entry): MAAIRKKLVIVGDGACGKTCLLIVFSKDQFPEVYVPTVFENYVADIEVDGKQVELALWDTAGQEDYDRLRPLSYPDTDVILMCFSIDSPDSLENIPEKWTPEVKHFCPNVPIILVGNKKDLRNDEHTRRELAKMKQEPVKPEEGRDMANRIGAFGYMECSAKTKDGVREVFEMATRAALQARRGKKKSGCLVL
Procedure: The GAP-stimulated GTPase activity of RhoA was assayed by measuring the decreased radioactivity of [γ-^32p] GTP.GST-RhoA for 2 min at 25° C. in the presence of 50 nM of p122 Rho GAP fused to GST (GST-RhoGAP) and MBP-PKN with various concentrations in 100 μl of reaction mixture (20 mM Tris/HCl at pH 7.5, 10 mM EDTA, 1 mM DTT, 10 mM MgCl2, 1 mM GTP, 0.075% CHAPS, 0.25 mM L-α-dimyristoylphosphatidylcholine, 100 nM [γ-^32p] GTP bound form of GST-RhoA) (Homma, Y. & Emori, Y., EMBO J. 14, 286-291 (1995).

Rat-1 cells = test: Subcellular distribution of PKN after sodium arsenite (immunofluorescence); assay type: cell-based; conditions: 50 μM, 37° C. for 2 hr
Procedure: as §1
An experiment was made in order to examine whether the subcellular distribution of PKN is influenced also by chemical shock. It is known that toxic compounds and toxic heavy metals also induce heat shock proteins and the stress responses in experimental systems (Maytin, E. V. & Young, D. A., J. Biol. Chem. 258, 12718-12722 (1983)). It is also known that cellular response similar to the stress induced by the heat shock is created also by treatment with sodium arsenite (Welch, W. J. & Suhan, J. P., J. Cell Biol. 103, 2035-2052 (1986)). […]

Compound: RERLRREIRKELKLK [PKN (39-53) peptide]
IC50 [4]: ≥ 1000 µM
type of inhibition versus δPKC peptide substrate (purified PKN; 100 μM ATP): competitive-noncompetitive
type of inhibition with varying ATP concentration (purified PKN; data not shown): uncompetitive

Compound: MBP-PKN: N-terminal region of PKN (amino acid sequence 7-155 in SEQ ID NO: 1) expressed as MBP fusion protein
effect on GST-RhoGAP-stimulated GTPase activity of GST-RhoA [5]: inhibited

Compound: O=[As]O [sodium arsenite]
effect on subcellular distribution of PKN (Rat-1 cells): translocation of PKN to the nucleus

Now from value to compound, other results behind:

enzyme (kinase) activity of the mutant (PKN autophosphorylation): inactivated
Compound: PKN-PK^−: single point mutation of human PKN in the kinase domain (K644R), protein kinase-negative mutant
nuclear translocation of the mutant protein on heat shock ([1]; 42° C. or 44° C. for 90 min): does not translocate to the nucleus
effect of overexpression on translocation of endogenous PKN from cytoplasm to nucleus ([1]; heat shock): inhibits the translocation

inhibitory activity against PKN (PKN): little or no inhibitory activity
Compound: EGAENLRRATTDLGRSLGPV [PKN (54-73) peptide]

initial velocity of phosphorylation of each NF subunit by PKN, presence versus absence [2]: 5-10 times
stimulation of phosphorylation of G-actin by PKN [3]: up to 2 fold
stimulation of phosphorylation of caldesmon by PKN [3]: at least 6 fold
Compound: CCCCC/C=C\C/C=C\C/C=C\C/C=C\CCCC(=O)O [arachidonic acid]
